Converted amounts (≈) assume the structure as drawn. Read-outs that look alike come from different tables or passages of the source.
Tests used:
[1] = test system: Staphylococcus aureus ATCC43300; assay: Systemic blood infection animal model; type: in vivo, mice; details: for number of colonies of organs (liver and kidney), antibacterial effect: 4 mg/kg, oral gavage 3 times a day for 7 days (positive drug given as ciprofloxacin hydrochloride)
Procedure: Mice were administered by oral gavage with the drug solvent for the model group and the blank group. • (5) 8 h after the last administration, mice were euthanized by cervical dislocation, disinfected with 75% alcohol, and then necropsied under sterile conditions. The kidneys and livers were harvested, observed and photographed, and the weight was recorded. • (6) The kidneys and livers were placed in a sterile glass grinder and sterile PBS in a volume ten times the weight of the organs was added and grinded. The grinding solutions were taken out, 10-fold serially diluted, smeared to a TSA solid culture medium, and incubated at 37°C for 16 hours, then the colonies were counted. The number of colonies of the organs was calculated to evaluate the therapeutic effect.

[2] = test system: human acute T-lymphoblastic leukemia cell Jurkat; assay: In vitro anticancer activity test (MTT cell proliferation assay); type: cell-based
Procedure: (§1) The anticancer activity of the compounds was tested using an in vitro cancer cell tests. The specific test method is as follows: • 1. Cell recovery and culture method: the cryovial was taken out from the liquid nitrogen container firstly, soaked directly in 37°C warm water, and shaked from time to time to let it thaw as soon as possible. Then, the cryovial was transferred to a clean bench, and the lid was open. […] Then, the supernatant was discarded, complete culture medium containing 10% fetal bovine serum was added to resuspend the cells, the cells was counted, the cell density was adjusted, and then inoculated into a culture bottle. The culture bottle was placed in a cell culture incubator at 5% CO2 and 37°C. The complete culture medium was replaced once the next day and the culture was continued. • 2. Cell passaging method: adherent cells in the logarithmic growth phase were placed in a clean bench, the original culture medium was discarded, and washed three times with 1×PBS. An appropriate amount of 0.25% trypsin digestion solution was added to moisten the cells, and then the trypsin solution was aspirated. […] When 90% of the cells become round, the cells were moved immediately to the clean bench and complete culture medium was added to terminate digestion. Then, the cells were dislodged by pipetting up and down with a rubber-tipped dropper to single cells. The cells were counted, and the cell density was adjusted. The cells were inoculated into a suitable culture bottle or dish, added enough complete culture medium, and placed in a cell culture incubator at 5% CO2 and 37°C for static culture. For suspension cells in the logarithmic phase, the original culture medium was directly centrifuged at 50g for 5 minutes, the supernatant was discarded, and the cells were washed once with PBS and centrifuged. After discarding the supernatant, the complete culture medium was added and the cells were dispersed using a rubber-tipped dropper. The cells are counted, and the cell density was adjusted. The cells were inoculated into appropriate culture bottles or culture dishes, and sufficient complete culture medium was added, and the cells were cultured in a cell culture incubator at 5% CO2 and 37°C. • 3.

[3] = test system: Staphylococcus aureus ATCC43300; assay: Resistance test of bacteria against compounds (serial passage, 21 days); type: cell-based; details: for MIC: Staphylococcus aureus, ATCC43300, 504 h, read-out: MIC at the end of the experiment
Procedure: This example provides a resistance test of bacteria against compounds, and the specific experimental method is as follows. • 1. […] It was ensured that among the 6 final concentrations of the drug diluted into the wells, some were higher than the original MIC of the bacteria and some were lower than the original MIC of the bacteria. • 2. Preparation of bacterial liquid: 10 mL of culture medium was taken and added to a sterilized plate using a pipette, then 100 µL of the above-mentioned passaged bacterial liquid was added, and mixed well for later use. • 3. The above-mentioned diluted bacterial liquid was taken and added to a 96-well plate using a pipette, 180 µL per well, 3 wells per group, 6 groups in total. 20 µL of drug solution was added to each well (note: it is necessary to replace the pipette tip each time the drug is added), so that the final drug concentrations were 2 µg/mL, 1 µg/mL, 0.8 µg/mL, 0.4 µg/mL, 0.2 µg/mL, 0.1 µg/mL, respectively. The well with 200 µL of diluted bacterial liquid was used as the positive control well, and the well with 200 µL of culture medium was used as the negative control well.
The test object was Staphylococcus aureus (S. aureus). The specific results are shown in FIG1.

[4] = test system: human ovarian adenocarcinoma cellSK-OV-3; assay: In vitro anticancer activity test (MTT cell proliferation assay); type: cell-based; details: SK-OV-3
Procedure: as §1

[5] = test system: human breast ductal carcinoma cell T-47D; assay: as above; type: cell-based; details: T47D
Procedure: as §1

[6] = test system: methicillin-resistant Staphylococcus aureus; type: in vivo, Kunming mice; details: for reduction of necrosis area compared with the control group: 4 consecutive days, measured on 5th day
Procedure: Kunming mice (20±2 g) were anesthetized with chloral hydrate and shaved, and then 50 µL of 4×10^7 CFU/mL of methicillin-resistant Staphylococcus aureus was subcutaneously injected. One day later, 100 µL of 0.02, 2 and 200 mg/kg of Example 29 were subcutaneously injected respectively, and 100 µL of normal saline was injected for the control group. The drug was administered for consecutive 4 days, and mice were euthanized on the 5th day, and the area of abscess was measured.

`O=C(O)c1cn(C2CC2)c2cc(N3CCNCC3)c(F)cc2c1=O` [Ciprofloxacin] was tested, and the “number of colonies of organs (liver and kidney), antibacterial effect” value [1] was “not apparent”, the IC50 [2] was greater than 100 µM and the “resistance of bacteria in the subsequent culture” value ([3]; Staphylococcus aureus ATCC43300, serial passage) was “increased rapidly”. It also gave an MIC [3] of 128 µg/mL (≈ 386 µM).
`O=C(O)c1cn(C2CC2)c2c(Cl)c(-c3ccc(S(=O)(=O)NCCCC(F)(F)F)nc3)c(F)cc2c1=O` [Example 29, 8-chloro-1-cyclopropyl-6-fluoro-4-oxo-7-(6-(N-(4,4,4-trifluorobutyl)sulfamoyl)pyridin-3-yl)-1,4-dihydroquinolin-3-carboxylic acid] was tested, and the “number of colonies of organs (liver and kidney) versus control group” value ([1]; 1 mg/kg, oral gavage 3 times a day for 7 days) was “significant statistical difference from the control group”, the “number of colonies of organs (liver and kidney), antibacterial effect” value [1] was “huge difference” and the “antibacterial effect in the liver and kidney (number of colonies) compared with ciprofloxacin” value ([1]; oral gavage 3 times a day for 7 days, Figure 4) was “very significant antibacterial effect”. For the same compound, the IC50 [2] was 1 to 10 µM, the IC50 [4] was 1 to 10 µM and the IC50 [5] was 1 to 10 µM. For the same compound, the “initial MIC compared with ciprofloxacin and vancomycin” value ([3]; Staphylococcus aureus ATCC43300, start of resistance test) was “superior”, the MIC [3] was 2 µg/mL (≈ 3.65 µM) and the “reduction of necrosis area compared with the control group” value ([6]; 0.02 mg/kg subcutaneous) was 78.09%. For the same compound, the “reduction of necrosis area compared with the control group” value ([6]; 2 mg/kg subcutaneous) was 81.21%, the antibacterial effect ([6]; concentrations 4 µg/mL and 400 µg/mL (corresponding to 0.02 mg/kg, 200 mg/kg)) was “good antibacterial effect” and the “observation at the subcutaneous administration site” value ([6]; mouse, in vivo, sc, 200 mg/kg) was “certain bleeding symptom in body surface appeared”.
`CCN(CC)CCNC(=O)c1c(C)[nH]c(/C=C2\C(=O)Nc3ccc(F)cc32)c1C` [Sunitinib] was tested, and the IC50 [4] was 12.2 ± 5.8 µM and the IC50 [5] was 6.4 ± 1.7 µM.
